Assay results taken from ChEMBL document CHEMBL1136378, “Novel 6,7-diphenyl-2,3,8,8a-tetrahydro-1H-indolizin-5-one analogues as cytotoxic agents” (Bioorg Med Chem Lett, 2003).

Key:
[1] = Cmax value was determined at a dose of 200 mg/kg (i.p.) in Mice; assay type: ADME, organism-based; set-up: dose 200 mg/kg, route intraperitoneal; conditions: mouse, in vivo, ip
[2] = Area under curve was determined at a dose of 200 mg/kg (i.p.) in Mice; assay type: ADME, organism-based; set-up: dose 200 mg/kg, route intraperitoneal; conditions: mouse, in vivo, ip
[3] = Half life beta(2,4,6,8h) value was determined at a dose of 200 mg/kg (i.p.) in Mice; assay type: ADME, organism-based; set-up: dose 200 mg/kg, route intraperitoneal; conditions: mouse, in vivo, ip, read-out: T1/2 beta (converted)
U-251 = assay: In vitro cytotoxic activity tested against human CNS (U251) cell line; assay type: functional
NCI/ADR-RES [4] = assay: In vitro cytotoxic activity against human breast cancer MCF/ADR cell line; assay type: functional
[5] = Average growth inhibition against cell lines was calculated; assay type: functional
SK-OV-3 [6] = assay: In vitro cytotoxic activity against human ovarian cancer (SK-OV3) cell line; assay type: functional
A498 [7] = assay: In vitro cytotoxic activity against human renal cancer (A498) cell line; assay type: functional
SW-620 [8] = assay: In vitro cytotoxic activity against human colon cancer (SW620) cell line; assay type: functional
[9] = Tmax value was determined at a dose of 200 mg/kg (i.p.) in Mice; assay type: ADME, organism-based; set-up: dose 200 mg/kg, route intraperitoneal; conditions: mouse, in vivo, ip
M14 [10] = assay: In vitro cytotoxic activity against human melanoma cancer (M14) cell line; assay type: functional
DU-145 [11] = assay: In vitro cytotoxic activity against human prostate cancer (DU145) cell line; assay type: functional
NCI-H522 [12] = assay: In vitro cytotoxic activity against human lung cancer (H-522) cell line
DU-145 [13] = assay: In vitro cytotoxic activity tested against human prostate cancer (DU145) cell line; assay type: functional
SW-620 [14] = assay: In vitro cytotoxic activity tested against human colon cancer (SW620) cell line; assay type: functional
SK-OV-3 [15] = assay: In vitro cytotoxic activity tested against human ovarian cancer (SK-OV3) cell line; assay type: functional
NCI/ADR-RES [16] = assay: In vitro cytotoxic activity tested against human breast cancer MCF/ADR cell line
A498 [17] = assay: In vitro cytotoxic activity was tested against human renal cancer (A498) cell line; assay type: functional
NCI-H522 [18] = assay: In vitro cytotoxic activity tested against human lung cancer (H-522) cell line
M14 [19] = assay: In vitro cytotoxic activity was tested against human melanoma cancer (M14) cell line; assay type: functional
[20] = Tmax value was determined at a dose of 100 mg/kg (i.p.) in Mice; assay type: ADME, organism-based; set-up: dose 100 mg/kg, route intraperitoneal; conditions: mouse, in vivo, ip
[21] = Cmax value was determined at a dose of 100 mg/kg (i.p.) in Mice; assay type: ADME, organism-based; set-up: dose 100 mg/kg, route intraperitoneal; conditions: mouse, in vivo, ip
[22] = Area under curve was determined at a dose of 100 mg/kg (i.p.) in Mice; assay type: ADME, organism-based; set-up: dose 100 mg/kg, route intraperitoneal; conditions: mouse, in vivo, ip

Structure (SMILES) | GI50 (U-251) [µM] | GI50 [5] [µM] | GI50 (DU-145 [13]) [µM] | GI50 (SW-620 [14]) [µM] | GI50 (SK-OV-3 [15]) [µM] | GI50 (NCI/ADR-RES [16]) [µM] | GI50 (A498 [17]) [µM] | GI50 (NCI-H522 [18]) [µM] | GI50 (M14 [19]) [µM] | further results
CSc1ccc(C2=C(c3ccc(C(F)(F)F)cc3)C(=O)N3CCCC3C2)cc1 (stereo not drawn) | 0.8 | 6.3 |  |  |  |  |  |  |  | Cmax [1]: 3.79 µM; AUC [2]: 10.7 µM·h; half-life [3]: 2.66 h; GI50 (NCI/ADR-RES [4]): 0.8 µM; GI50 (SK-OV-3 [6]): 15 µM; GI50 (A498 [7]): 20 µM; GI50 (SW-620 [8]): 0.8 µM; Tmax [9]: 0.25 h; GI50 (M14 [10]): 12 µM; GI50 (DU-145 [11]): 0.7 µM; GI50 (NCI-H522 [12]): 0.8 µM
CSc1ccc(C2=C(c3ccc(C)cc3)C(=O)N3CCCC3C2)cc1 (stereo not drawn) | 0.4 | 3 | 0.6 | 3 | 9 | 0.6 | 4 | 0.9 | 6 | Cmax [1]: 8.02 µM; AUC [2]: 38.5 µM·h; half-life [3]: 6.24 h; Tmax [9]: 0.25 h
COc1ccc(C2=C(c3ccc(SC)cc3)CC3CCCN3C2=O)cc1C (stereo not drawn) | 0.09 | 2.1 | 0.9 | 0.5 | 15 | 0.4 | 0.4 | 0.1 | 0.2 | 
CSc1ccc(C2=C(c3ccc(F)c(F)c3)C(=O)N3CCCC3C2)cc1 (stereo not drawn) | 15 | 2.1 | 0.5 | 0.2 | 0.1 | 0.8 | 0.1 | 0.2 | 0.3 | Tmax [20]: 0.29 h; Cmax [21]: 3.61 µM; AUC [22]: 6.92 µM·h
COc1ccc(C2=C(c3cc(OC)c(OC)c(OC)c3)CC3CCCN3C2=O)cc1O (stereo not drawn) | > 100 | > 100 | > 100 | > 100 | > 100 | > 100 | > 100 | > 100 | > 100 | 
COc1ccc(C2=C(c3ccc(SC)cc3)CC3CCCN3C2=O)cc1O (stereo not drawn) | 5 | 23.6 | 6 | 20 | > 100 | 5 |  | 6 |  | 
COc1ccc(C2=C(c3ccc(OC)c(OC)c3)C(=O)N3CCCC3C2)cc1OC (stereo not drawn) | > 100 | > 100 | > 100 | > 100 | > 100 | > 100 | > 100 | > 100 | > 100 | 
COc1ccc(C2=C(c3ccc(SC)cc3)CC3CCCN3C2=O)cc1OC (stereo not drawn) | 0.3 | 3.6 | 1.5 | 3 | 9 | 0.6 | 8 | 2 | 5 | Cmax [1]: 23 µM; AUC [2]: 102 µM·h; half-life [3]: 7.29 h; Tmax [9]: 0.25 h
CSc1ccc(C2=C(c3ccc(F)cc3)C(=O)N3CCCC3C2)cc1 (stereo not drawn) | 0.09 | 4.1 | 0.5 | 0.5 | 30 | 0.8 | 0.1 | 0.25 | 0.6 | Cmax [1]: 0.99 µM; AUC [2]: 3.88 µM·h; half-life [3]: 2.59 h; Tmax [9]: 1.5 h
CSc1ccc(C2=C(c3ccc(OCCN4CCOCC4)cc3)C(=O)N3CCCC3C2)cc1 (stereo not drawn) | 9 | 11.5 | 20 | 9 | 9 | 9 | 9 | 7 | 20 | 
COc1ccc(C2=C(c3ccc(SC)cc3)CC3CCCN3C2=O)cc1Br (stereo not drawn) | 0.8 | 2.5 | 0.9 | 5 | 3 | 6 | 0.6 | 0.7 | 3 | 
COc1ccc(C2=C(c3ccc(SC)cc3)CC3CCCN3C2=O)cc1OC(=O)C1CCCN1C(=O)OC(C)(C)C (stereo not drawn) | 2 | 6 | 5 | 10 | 10 | 4 |  | 5 |  | 
CSc1ccc(C2=C(c3ccc(O)c(O)c3)C(=O)N3CCCC3C2)cc1 (stereo not drawn) | 30 | 60 | 60 | 50 | 80 | 80 |  | 60 |  | 
COc1ccc(C2=C(c3ccc(SC)cc3)CC3CCCN3C2=O)cc1OC(=O)CNC(=O)OC(C)(C)C (stereo not drawn) | 6 | 11.5 | 10 | 20 | 20 | 6 |  | 7 |  | 
COc1ccc(C2=C(c3ccc(SC)cc3)CC3CCCN3C2=O)cc1 (stereo not drawn) | 2 | 2.4 | 0.9 | 3 | 3 | 5 | 0.8 | 0.8 | 4 | 
CSc1ccc(C2=C(c3ccc(Br)cc3)C(=O)N3CCCC3C2)cc1 (stereo not drawn) | 7 | 7.8 | 9 | 7 | 9 | 8 | 7 | 7 | 9 | 
CSc1ccc(C2=C(c3ccc(O)cc3)C(=O)N3CCCC3C2)cc1 (stereo not drawn) | > 100 | > 100 | > 100 | > 100 | > 100 | > 100 | > 100 | > 100 | > 100 | 
CSc1ccc(C2=C(c3ccc(OCC4CO4)cc3)C(=O)N3CCCC3C2)cc1 (stereo not drawn) | 0.08 | 2.6 | 0.5 | 0.09 | 10 | 10 | 0.5 | 0.03 | 0.09 | 
CSc1ccc(C2=C(c3ccc(SC)cc3)C(=O)N3CCCC3C2)cc1 (stereo not drawn) | 5 | 8.1 | 8 | 7 | 2 | 8 | 15 | 15 | 5 | Cmax [1]: 0.86 µM; AUC [2]: 2.5 µM·h; Tmax [9]: 1 h
COc1cc(C2=C(c3ccc(SC)cc3)CC3CCCN3C2=O)ccc1O (stereo not drawn) | 8 | 7.75 | 8 | 9 | 8 | 8 | 5 | 7 | 9 | 
CSc1ccc(C2=C(c3ccc(C)c(C)c3)C(=O)N3CCCC3C2)cc1 (stereo not drawn) | 10 | 1.7 | 0.5 | 0.7 | 0.3 | 0.8 | 0.3 | 0.3 | 0.8 | 
COc1ccc(C2=C(c3ccc(SC)cc3)CC3CCCN3C2)cc1O (stereo not drawn) | > 100 | > 100 | > 100 | > 100 | > 100 | > 100 | > 100 | > 100 | > 100 | 
COc1ccc(C2=C(c3ccc(OC)c(OC)c3)CN3CCCC3C2)cc1OC (stereo not drawn) | > 100 | > 100 | > 100 | > 100 | > 100 | > 100 | > 100 | > 100 | > 100 | 
CSc1ccc(C2=C(c3ccc(F)c(C)c3)C(=O)N3CCCC3C2)cc1 (stereo not drawn) | 0.2 | 1.1 | 0.5 | 0.6 | 0.3 | 0.5 | 0.3 | 0.5 | 0.8 | 
COc1ccc(/C=C\c2cc(OC)c(OC)c(OC)c2)cc1O [COMBRETASTATIN A4] | 0.006 | 0.103 |  | 0.005 | < 0.0001 | 0.09 | 0.61 | 0.007 | 0.0001 | 
